# Laboratory results from patent US20260226493A1, “HERBICIDE RESISTANT PLANTS” (SYNGENTA CROP PROTECTION AG, priority 2023, published 2026).
# Columns and labels:
# Assay in all cases: BIO3-BIO1 mutant enzyme activity in the presence of herbicide, percentage inhibition (fluorometric DAPA assay)
# Type in all cases: biochemical
# Conditions in all cases: read-out: percentage inhibition
# [1] = biological target: T1, Arabidopsis thaliana BIO3-BIO1 (BioDA) mutants (Arabidopsis thaliana, UniProt B0F481, S509W)
# T1 construct: with the predicted N-terminal mitochondrial transit peptide removed; 6xHis-tag (N); thrombin cleavage site (N); made in house; host or cells: E. coli BL21 (DE3) bioA
# Source text: (§1) A pet-24 plasmid containing a DNA sequence encoding each identified variant mutant of BIO3-BIO1 derived from Arabidopsis thaliana from example 5 above, as shown in Table 13 below and as shown in full in SEQ ID NOs: 15 to 155, codon-optimised for expression in E. coli, with an N-terminal 6×His-tag and thrombin cleavage site and under control of a T7 promoter, and was synthesised by Twist Bioscience, in a similar manner to SEQ ID NO:311. These plasmids were then expressed in E. coli BL21 (DE3) bioA with 50 μg/mL kanamycin and 25 μg/mL chloramphenicol selection. Overnight cultures grown at 37° C. were used to inoculate 8×500 mL AIM in shake flasks at a ratio of 1:100. Cultures were grown at 37° C., 200 rpm for 3.5 hours and then overnight at 20° C. Cells were harvested by centrifugation for 30 minutes at 10 000 g. Cells were stored at −80° C. until extraction. 30 g of cell pellet from was thawed in 120 mL of IMAC buffer A (20 mM HEPES pH7.5, 25 mM imidazole, 500 mM sodium chloride, 0.15 mM pyridoxal phosphate, 0.5 mM TCEP, 1× complete Protease Inhibitor Tablet (Roche)). The resuspension was passed through a cell disrupter at 18 000 PSI and centrifuged at 50 000 g for 25 minutes at 4° C. The His-tagged BIO3-BIO1 protein was purified from the extract supernatant on an AKTA avant chromatography system (Cytiva) using a HisTrap FF column and eluted in IMAC buffer B ((20 mM HEPES pH7.5, 500 mM imidazole, 500 mM sodium chloride, 0.15 mM pyridoxal phosphate, 0.5 mM TCEP) followed by SEC using a HiLoad 26/60 Superdex200 column in SEC buffer (25 mM HEPES pH7.5, 150 mM sodium chloride, 0.15 mM pyridoxal phosphate, 0.5 mM TCEP). Protein concentration was measured and calculated using the absorbance at 280 nm. Extracts were diluted 1 in 4 and 10 uL was analysed by SDS PAGE.
# (§2) To measure BIO3-BIO1 mutant enzyme activity in the presence of herbicide, herbicides were incubated with 20 μL of enzyme mix (100 mM EPPS pH 8.6, 0.1 mM pyridoxal phosphate, 0.1 mg/mL BSA, 50 nM BIO3-BIO1 enzyme) for 10 minutes at 20° C. in a well of a 96-well half-area black plate, followed by the addition of 20 μL of substrate mix (final concentration of 100 mM EPPS pH 8.6, 0.1 mM pyridoxal phosphate, 0.1 mg/mL BSA, 100 μM spermidine, 20 μM KAPA, 100 mM NaCO3) and further incubation for 75 minutes at 20° C. The reaction was terminated by the addition of 50 μL of derivatisation mix (final concentration of 250 mM borate NaOH pH 9.4, 3.6 mM o-phthalaldehyde, 7 mM β-mercaptoethanol, 17% (v/v) ethanol, 3.6% (v/v) methanol). The fluorescent product produced by the reaction of DAPA with o-phthalaldehyde and 7 mM β-mercaptoethanol was measured at 470 nm after excitation at 410 nm. The percentage inhibition was calculated as the activity in the presence of one of three concentrations of each herbicide compound A to M (note that the compounds labelled as A to M are identified hereinabove in the relevant section of the description) as a percentage of the activity in DMSO (Table 12 and 13). The percentage activity versus WT was also calculated and is shown in Table 13 and 14 (NT indicates mutation not tested in table 13, note that these mutations are tested at different compound concentrations for compounds L, M and C, and the results are shown in table 14).
# [2] = biological target: T2, Arabidopsis thaliana BIO3-BIO1 (BioDA) mutants (Arabidopsis thaliana, UniProt B0F481, W391L)
# T2 construct: with the predicted N-terminal mitochondrial transit peptide removed; 6xHis-tag (N); thrombin cleavage site (N); made in house; host or cells: E. coli BL21 (DE3) bioA
# Source text: as §1, §2
# [3] = biological target: T3, Arabidopsis thaliana BIO3-BIO1 (BioDA) mutants (Arabidopsis thaliana, UniProt B0F481, S509C)
# T3 construct: with the predicted N-terminal mitochondrial transit peptide removed; 6xHis-tag (N); thrombin cleavage site (N); made in house; host or cells: E. coli BL21 (DE3) bioA
# Source text: as §1, §2
# [4] = biological target: T4, Arabidopsis thaliana BIO3-BIO1 (BioDA) mutants (Arabidopsis thaliana, UniProt B0F481, T512W)
# T4 construct: with the predicted N-terminal mitochondrial transit peptide removed; 6xHis-tag (N); thrombin cleavage site (N); made in house; host or cells: E. coli BL21 (DE3) bioA
# Source text: as §1, §2
# [5] = biological target: T5, Arabidopsis thaliana BIO3-BIO1 (BioDA) mutants (Arabidopsis thaliana, UniProt B0F481, T512N)
# T5 construct: with the predicted N-terminal mitochondrial transit peptide removed; 6xHis-tag (N); thrombin cleavage site (N); made in house; host or cells: E. coli BL21 (DE3) bioA
# Source text: as §1, §2
# [6] = biological target: T6, Arabidopsis thaliana BIO3-BIO1 (BioDA) mutants (Arabidopsis thaliana, UniProt B0F481, S509N)
# T6 construct: with the predicted N-terminal mitochondrial transit peptide removed; 6xHis-tag (N); thrombin cleavage site (N); made in house; host or cells: E. coli BL21 (DE3) bioA
# Source text: as §1, §2
# [7] = biological target: T7, Arabidopsis thaliana BIO3-BIO1 (BioDA) mutants (Arabidopsis thaliana, UniProt B0F481, Q516C)
# T7 construct: with the predicted N-terminal mitochondrial transit peptide removed; 6xHis-tag (N); thrombin cleavage site (N); made in house; host or cells: E. coli BL21 (DE3) bioA
# Source text: as §1, §2
# [8] = biological target: T8, Arabidopsis thaliana BIO3-BIO1 (BioDA) mutants (Arabidopsis thaliana, UniProt B0F481, G608A)
# T8 construct: with the predicted N-terminal mitochondrial transit peptide removed; 6xHis-tag (N); thrombin cleavage site (N); made in house; host or cells: E. coli BL21 (DE3) bioA
# Source text: as §1, §2
# [9] = biological target: T9, Arabidopsis thaliana BIO3-BIO1 (BioDA) mutants (Arabidopsis thaliana, UniProt B0F481, F370L)
# T9 construct: with the predicted N-terminal mitochondrial transit peptide removed; 6xHis-tag (N); thrombin cleavage site (N); made in house; host or cells: E. coli BL21 (DE3) bioA
# Source text: as §1, §2
# [10] = biological target: T10, Arabidopsis thaliana BIO3-BIO1 (BioDA) mutants (Arabidopsis thaliana, UniProt B0F481, P510V)
# T10 construct: with the predicted N-terminal mitochondrial transit peptide removed; 6xHis-tag (N); thrombin cleavage site (N); made in house; host or cells: E. coli BL21 (DE3) bioA
# Source text: as §1, §2
# [11] = biological target: T11, Arabidopsis thaliana BIO3-BIO1 (BioDA) mutants (Arabidopsis thaliana, UniProt B0F481, F420I)
# T11 construct: with the predicted N-terminal mitochondrial transit peptide removed; 6xHis-tag (N); thrombin cleavage site (N); made in house; host or cells: E. coli BL21 (DE3) bioA
# Source text: as §1, §2
# [12] = biological target: T12, Arabidopsis thaliana BIO3-BIO1 (BioDA) mutants (Arabidopsis thaliana, UniProt B0F481, P508T)
# T12 construct: with the predicted N-terminal mitochondrial transit peptide removed; 6xHis-tag (N); thrombin cleavage site (N); made in house; host or cells: E. coli BL21 (DE3) bioA
# Source text: as §1, §2
# T2 sequence (B0F481 23-833 W391L): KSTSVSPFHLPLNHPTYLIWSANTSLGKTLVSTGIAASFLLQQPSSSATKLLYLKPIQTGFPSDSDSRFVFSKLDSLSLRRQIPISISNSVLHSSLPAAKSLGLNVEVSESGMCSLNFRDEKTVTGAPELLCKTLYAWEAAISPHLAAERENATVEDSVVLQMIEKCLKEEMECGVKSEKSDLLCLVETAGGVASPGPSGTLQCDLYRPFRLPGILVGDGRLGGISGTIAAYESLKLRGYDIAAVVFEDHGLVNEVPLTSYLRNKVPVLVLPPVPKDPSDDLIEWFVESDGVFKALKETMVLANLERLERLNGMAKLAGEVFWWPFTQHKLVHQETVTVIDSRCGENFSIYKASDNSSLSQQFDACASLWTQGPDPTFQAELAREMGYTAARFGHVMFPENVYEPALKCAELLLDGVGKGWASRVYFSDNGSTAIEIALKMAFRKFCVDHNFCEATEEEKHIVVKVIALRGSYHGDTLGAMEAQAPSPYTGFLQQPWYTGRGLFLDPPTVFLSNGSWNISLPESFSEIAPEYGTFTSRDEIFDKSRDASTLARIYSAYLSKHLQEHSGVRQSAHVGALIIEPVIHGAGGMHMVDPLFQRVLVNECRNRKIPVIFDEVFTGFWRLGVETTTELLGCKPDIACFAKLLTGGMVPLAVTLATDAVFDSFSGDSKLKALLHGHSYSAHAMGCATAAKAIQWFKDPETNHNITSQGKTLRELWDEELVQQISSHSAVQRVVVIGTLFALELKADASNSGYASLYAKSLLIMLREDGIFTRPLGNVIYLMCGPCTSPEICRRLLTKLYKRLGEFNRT
# T5 sequence (B0F481 23-833 T512N): as the sequence (B0F481 23-833 W391L) above, with L369W, T490N counted along it
# T4 sequence (B0F481 23-833 T512W): as the sequence (B0F481 23-833 W391L) above, with L369W, T490W counted along it
# T1 sequence (B0F481 23-833 S509W): as the sequence (B0F481 23-833 W391L) above, with L369W, S487W counted along it
# T3 sequence (B0F481 23-833 S509C): as the sequence (B0F481 23-833 W391L) above, with L369W, S487C counted along it
# T9 sequence (B0F481 23-833 F370L): as the sequence (B0F481 23-833 W391L) above, with F348L, L369W counted along it
# T6 sequence (B0F481 23-833 S509N): as the sequence (B0F481 23-833 W391L) above, with L369W, S487N counted along it
# T10 sequence (B0F481 23-833 P510V): as the sequence (B0F481 23-833 W391L) above, with L369W, P488V counted along it
# T11 sequence (B0F481 23-833 F420I): as the sequence (B0F481 23-833 W391L) above, with L369W, F398I counted along it
# T12 sequence (B0F481 23-833 P508T): as the sequence (B0F481 23-833 W391L) above, with L369W, P486T counted along it
# T8 sequence (B0F481 23-833 G608A): as the sequence (B0F481 23-833 W391L) above, with L369W, G586A counted along it
# T7 sequence (B0F481 23-833 Q516C): as the sequence (B0F481 23-833 W391L) above, with L369W, Q494C counted along it
Compound,inhibition at 0.2 µM [1],inhibition at 1 µM [1],inhibition at 5 µM [1],inhibition at 0.2 µM [2],inhibition at 1 µM [2],inhibition at 5 µM [2],inhibition at 0.2 µM [3],inhibition at 1 µM [3],inhibition at 5 µM [3],inhibition at 0.2 µM [4],inhibition at 1 µM [4],inhibition at 5 µM [4],inhibition at 1 µM [5],inhibition at 1 µM [6],inhibition at 1 µM [7],inhibition at 1 µM [8],inhibition at 1 µM [9],inhibition at 1 µM [10],inhibition at 1 µM [11],inhibition at 1 µM [12],further results
"CCn1c(C)c(-c2ccc(F)cc2F)c(=O)c(C(=O)O)c1-c1ccc(Cl)c(Cl)c1 [Compound C, 2-(3,4-dichlorophenyl)-5-(2,4-difluorophenyl)-1-ethyl-6-methyl-4-oxo-pyridine-3-carboxylic acid]",14%,92%,103%,23%,29%,33%,30%,65%,88%,50%,83%,95%,74%,50%,95%,42%,24%,21%,55%,54%,inhibition at 0.2 µM [5]: 29%; inhibition at 5 µM [5]: 93%; inhibition at 0.2 µM [6]: 16%; inhibition at 5 µM [6]: 86%; inhibition at 0.2 µM [7]: 74%; inhibition at 5 µM [7]: 99%; inhibition at 0.2 µM [8]: 11%; inhibition at 5 µM [8]: 81%; inhibition at 0.2 µM [9]: 19%; inhibition at 5 µM [9]: 82%; inhibition at 0.2 µM [10]: 0%; inhibition at 5 µM [10]: 79%; inhibition at 0.2 µM [11]: 0%; inhibition at 5 µM [11]: 88%; inhibition at 0.2 µM [12]: 23%; inhibition at 5 µM [12]: 82%
"CCn1c(Cn2ccc(C(F)(F)F)n2)cc(=O)c(C(=O)O)c1-c1ccc(Cl)c(Cl)c1 [Compound L, 2-(3,4-dichlorophenyl)-1-ethyl-4-oxo-6-[[3-(trifluoromethyl)pyrazol-1-yl]methyl]pyridine-3-carboxylic acid]",–,–,–,–,–,–,–,–,–,–,–,–,–,–,–,–,–,–,–,–,inhibition at 0.01 µM [7]: 44%; inhibition at 0.075 µM [7]: 77%; inhibition at 0.5 µM [7]: 95%; inhibition at 0.01 µM [8]: 6%; inhibition at 0.075 µM [8]: 17%; inhibition at 0.5 µM [8]: 68%; inhibition at 0.01 µM [9]: 0%; inhibition at 0.075 µM [9]: 14%; inhibition at 0.5 µM [9]: 38%; inhibition at 0.01 µM [10]: 0%; inhibition at 0.075 µM [10]: 0%; inhibition at 0.5 µM [10]: 52%; inhibition at 0.01 µM [11]: 0%; inhibition at 0.075 µM [11]: 1%; inhibition at 0.5 µM [11]: 62%; inhibition at 0.01 µM [12]: 25%; inhibition at 0.075 µM [12]: 22%; inhibition at 0.5 µM [12]: 85%
"CCOC(=O)c1nn(-c2ccc3c(c2)OC(F)(F)C(F)(F)O3)c2cccc(C(C)=O)c2c1=O [Compound A, ethyl 5-acetyl-4-oxo-1-(2,2,3,3-tetrafluoro-1,4-benzodioxin-6-yl)cinnoline-3-carboxylate]",–,0%,–,–,62%,–,–,0%,–,–,0%,–,21%,43%,83%,10%,15%,1%,0%,55%,–
"CCn1c(-c2ccc(Cl)c(Cl)c2)c(C(=O)O)c(=O)c2cc(F)ccc21 [Compound M, 2-(3,4-dichlorophenyl)-1-ethyl-6-fluoro-4-oxo-quinoline-3-carboxylic acid]",0%,60%,95%,18%,16%,43%,21%,53%,78%,33%,55%,83%,74%,39%,88%,38%,25%,0%,45%,44%,inhibition at 0.2 µM [5]: 27%; inhibition at 5 µM [5]: 93%; inhibition at 0.2 µM [6]: 6%; inhibition at 5 µM [6]: 78%; inhibition at 0.2 µM [7]: 64%; inhibition at 5 µM [7]: 97%; inhibition at 0.2 µM [8]: 12%; inhibition at 5 µM [8]: 74%; inhibition at 0.2 µM [9]: 0%; inhibition at 5 µM [9]: 80%; inhibition at 0.2 µM [10]: 0%; inhibition at 5 µM [10]: 62%; inhibition at 0.2 µM [11]: 0%; inhibition at 5 µM [11]: 84%; inhibition at 0.2 µM [12]: 20%; inhibition at 5 µM [12]: 78%
